# Literature values as cited in patent US8642581B1, “Compositions and methods for the production of S-adenosylmethionine within the body” (priority 2000, dated 2014).
# Experiments:
# [1] = 35° C. (95° F.)
# Depressive symptoms = conditions: 195 patients, 400 mg SAMe parenterally for 15 days
# [2] = test system: beta-adrenergic binding sites; conditions: rats, chronic administration
# brain membrane = conditions: rats, chronic administration
compound,measurement,setting,value
"C[S+](CC[C@H](N)C(=O)O)C[C@H]1O[C@@H](n2cnc3c(N)ncnc32)[C@H](O)[C@@H]1O (some centres unmarked) [SAMe, S-adenosylmethionine]",time SAMe remains stable,[1],8 to 10 h
same,serious adverse events,Depressive symptoms,no serious adverse events were reported
same,Depressive symptoms,Depressive symptoms; after 7 and 15 days,remitted after both 7 and 15 days
same,age-related decrease in beta-adrenergic binding sites,[2],prevents
same,age-related decrease of brain membrane fluidity,brain membrane,prevents
